According to ChEMBL document CHEMBL1201862, “PubChem BioAssay data set” (2004):
Calls of active or inactive are those of the source.

Key:
HEK293 [1] = assay: inhibitors of LMP1-driven NF-kB reporter, dose response, cell-based, HEK293, luciferase, cherry-pick (AID 588343); assay type: functional; settings: Homo sapiens
[2] = target: SWI/SNF-related matrix-associated actin-dependent regulator of chromatin subfamily A member 2 (Homo sapiens, UniProt P51531); assay: Luminescence-based cell-based high throughput dose response assay to identify activators of the function of SWI/SNF related, matrix associated, actin dependent regulator of chromatin, subfamily a, member 2 (SMARCA2, BRM).; assay type: functional
Chain of SWI/SNF-related matrix-associated actin-dependent regulator of chromatin subfamily A member 2 (P51531 whole entry): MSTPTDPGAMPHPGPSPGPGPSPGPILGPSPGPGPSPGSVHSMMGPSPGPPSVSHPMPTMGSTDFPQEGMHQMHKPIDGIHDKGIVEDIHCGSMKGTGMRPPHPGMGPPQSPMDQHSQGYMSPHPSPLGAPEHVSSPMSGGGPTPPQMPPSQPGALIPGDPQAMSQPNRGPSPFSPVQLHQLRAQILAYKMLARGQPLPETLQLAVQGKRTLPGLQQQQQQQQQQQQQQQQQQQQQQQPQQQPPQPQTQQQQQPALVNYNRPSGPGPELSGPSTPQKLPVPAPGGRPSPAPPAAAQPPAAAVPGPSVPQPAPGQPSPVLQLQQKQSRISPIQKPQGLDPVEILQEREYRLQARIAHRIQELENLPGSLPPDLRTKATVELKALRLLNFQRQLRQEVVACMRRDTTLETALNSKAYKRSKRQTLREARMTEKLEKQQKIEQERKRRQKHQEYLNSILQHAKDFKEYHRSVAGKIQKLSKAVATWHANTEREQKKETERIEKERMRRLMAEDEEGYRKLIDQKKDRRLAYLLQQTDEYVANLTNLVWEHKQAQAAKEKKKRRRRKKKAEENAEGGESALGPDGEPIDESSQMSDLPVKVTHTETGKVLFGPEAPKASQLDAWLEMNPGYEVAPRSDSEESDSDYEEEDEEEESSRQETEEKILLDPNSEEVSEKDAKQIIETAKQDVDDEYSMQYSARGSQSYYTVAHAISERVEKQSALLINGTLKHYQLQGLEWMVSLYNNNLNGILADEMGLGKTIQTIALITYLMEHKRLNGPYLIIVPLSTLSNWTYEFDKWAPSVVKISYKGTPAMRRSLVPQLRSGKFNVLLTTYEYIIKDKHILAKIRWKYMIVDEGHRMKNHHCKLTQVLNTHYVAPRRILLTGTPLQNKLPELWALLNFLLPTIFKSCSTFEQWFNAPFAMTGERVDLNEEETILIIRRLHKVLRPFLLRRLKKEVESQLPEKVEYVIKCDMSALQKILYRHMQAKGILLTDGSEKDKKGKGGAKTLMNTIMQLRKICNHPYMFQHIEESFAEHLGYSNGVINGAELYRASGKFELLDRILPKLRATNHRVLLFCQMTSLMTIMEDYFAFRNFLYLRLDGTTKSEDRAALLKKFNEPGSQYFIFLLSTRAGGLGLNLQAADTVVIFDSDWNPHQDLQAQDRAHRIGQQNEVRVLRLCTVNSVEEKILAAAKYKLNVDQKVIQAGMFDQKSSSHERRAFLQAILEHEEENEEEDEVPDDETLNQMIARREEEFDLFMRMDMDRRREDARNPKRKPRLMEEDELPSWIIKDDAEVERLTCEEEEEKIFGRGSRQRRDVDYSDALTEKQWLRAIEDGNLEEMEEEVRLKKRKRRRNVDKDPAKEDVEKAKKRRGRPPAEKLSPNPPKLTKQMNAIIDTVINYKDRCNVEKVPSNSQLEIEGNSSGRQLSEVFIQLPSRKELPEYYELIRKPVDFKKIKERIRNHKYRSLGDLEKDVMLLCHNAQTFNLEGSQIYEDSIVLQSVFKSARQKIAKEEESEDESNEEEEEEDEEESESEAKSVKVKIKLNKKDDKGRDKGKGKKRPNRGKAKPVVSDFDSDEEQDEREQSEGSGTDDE

[3] = Counterscreen for activators of the function of SWI/SNF related, matrix associated, actin dependent regulator of chromatin, subfamily a, member 2 (SMARCA2, BRM): Luminescence-based cell-based high throughput dose response assay to identify non-selective compounds using the VP16 reporter assay.; assay type: functional
HEK293 [4] = assay: NOD1 signaling inhibitors, primary screen, cell-based, luminescence, uHTS (AID 1578); assay type: functional; settings: Homo sapiens
[5] = target: T1, RNA-binding protein pos-1 (Caenorhabditis elegans, UniProt G5EF15); assay: inhibitors of POS-1/mex-3 RNA binding, dose response, biochemical, fluorescence polarization (AID 1964);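 also: purified POS-1 fused to maltose binding protein made in E. coli; potency of compounds blocking POS-1 binding to fluorescent RNA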
T1 sequence (G5EF15 whole entry): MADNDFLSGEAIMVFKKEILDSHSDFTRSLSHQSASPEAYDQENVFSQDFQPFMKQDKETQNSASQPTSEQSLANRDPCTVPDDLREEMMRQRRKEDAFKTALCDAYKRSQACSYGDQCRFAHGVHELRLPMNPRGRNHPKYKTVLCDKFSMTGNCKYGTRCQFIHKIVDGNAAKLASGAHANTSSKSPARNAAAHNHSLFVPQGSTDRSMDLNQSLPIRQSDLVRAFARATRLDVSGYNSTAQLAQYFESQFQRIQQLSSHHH

HEK293 [6] = assay: cells; assay type: functional, cell-based; settings: Homo sapiens
[7] = target: T2, Zinc finger protein mex-5 (Caenorhabditis elegans, UniProt Q9XUB2); assay: MEX-5/TCR-2 RNA interaction inhibitors, dose response, biochemical, C. elegans, fluorescence polarization (AID 1960)
T2 sequence (Q9XUB2 whole entry): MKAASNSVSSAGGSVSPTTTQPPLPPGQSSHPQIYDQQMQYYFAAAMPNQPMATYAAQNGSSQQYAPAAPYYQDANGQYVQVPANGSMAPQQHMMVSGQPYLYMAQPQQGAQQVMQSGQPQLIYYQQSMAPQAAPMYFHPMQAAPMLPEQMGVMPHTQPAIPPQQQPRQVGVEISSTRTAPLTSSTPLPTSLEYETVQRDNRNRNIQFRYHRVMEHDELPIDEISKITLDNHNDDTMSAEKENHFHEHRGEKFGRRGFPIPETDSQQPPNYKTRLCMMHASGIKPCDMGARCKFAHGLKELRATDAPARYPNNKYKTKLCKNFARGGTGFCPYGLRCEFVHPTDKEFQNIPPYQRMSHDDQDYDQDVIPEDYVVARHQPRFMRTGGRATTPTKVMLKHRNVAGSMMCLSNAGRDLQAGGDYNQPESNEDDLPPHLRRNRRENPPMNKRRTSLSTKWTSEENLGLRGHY

HEK293 [8] = assay: cells; assay type: functional, cell-based; settings: Homo sapiens; remark: listed apart in the source
HEK293 [9] = assay: NOD2 signaling inhibitors in MDP-stimulated cells, cell-based, uHTS, luminescence (AID 2001); assay type: functional; settings: Homo sapiens
HeLa = assay: HeLa cell cytotoxicity, dose response, cytotoxicity control for MITF activator project, CellTiter-Glo luminescence, cherry-pick samples (AID 540259); assay type: functional, cell-based; settings: Homo sapiens
[10] = Shn3 3'UTR reporter inhibitors, dose response, cell-based, Clone20 osteoblasts, firefly luciferase, cherry-picked (AID 624132); assay type: functional;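 also: firefly luciferase luminescence from reporter carrying the Shn3 3'UTR in osteoblasts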
[11] = HepG2 cell cytotoxicity, dose response, cytotoxicity control for Shn3 inhibitor project, CellTiter-Glo, cherry-picked (AID 624134); assay type: functional, cell-based
[12] = control 3'UTR Renilla luciferase suppression, dose response, counter-screen for Shn3 inhibitor project, cell-based, Clone20-Shn3RL, cherry-picked (AID 624133); assay type: functional

## C=CCn1c(SCc2csc(C)n2)nc2sc3c(c2c1=O)CCCC3
HEK293 [1]
  AC50: 35.8 µM (active)

## O=C(OCc1cc(=O)oc2cc(O)ccc12)c1cc(S(=O)(=O)N2CCOCC2)ccc1F
[2]
  EC50: > 91.2 µM (inactive)
[3]
  EC50: > 91.2 µM (inactive)

## COc1ccc(/C=C/C(=O)c2c(C)cc(C)nc2O)c2ccccc12
HEK293 [4]
  EC50: 4.53 µM (active)
[5]
  EC50: > 300 µM (not active)
HEK293 [6]
  IC50: 10.1 µM (active)
[7]
  EC50: > 300 µM (not active)
HEK293 [8]
  IC50: > 20 µM (inactive)
HEK293 [9]
  IC50: 12.4 µM (inactive)

## Nc1ccc2oc(=O)c3ccccc3c2c1
HeLa
  AC50: 178 µM (active)

## COC(=O)c1ccc2c(O)nc(CCl)nc2c1
HEK293 [4]
  EC50: > 20 µM (inactive)
HEK293 [6]
  IC50: > 20 µM (inactive)
HEK293 [8]
  IC50: > 20 µM (inactive)
HEK293 [9]
  IC50: > 20 µM (inactive)

## CC(=NNC(=S)Nc1ccccc1)c1ccccn1
HEK293 [1]
  AC50: 0.0995 µM (active)

## COc1cccc(C(=O)Nc2nnc(-c3ccccc3)s2)c1
HeLa
  AC50: 44.4 µM (active)

## CCS(=O)(=O)c1ccc2oc(Nc3ccccc3C)nc2c1
HeLa
  AC50: 78.7 µM (active)

## CCCC(=O)NC(c1cccc([N+](=O)[O-])c1)c1ccc2cccnc2c1O (stereo unspecified)
HEK293 [1]
  AC50: 4.48 µM (active)
[10]
  AC50: 1.75 µM (active)
[11]
  AC50: 4.25 µM (active)
[12]
  AC50: 3.55 µM (active)
